Assay results: ChEMBL document CHEMBL5360561, “Design, synthesis and biological evaluation of fluorinated selective estrogen receptor degraders (FSERDs) --- A promising strategy for advanced ER positive breast cancer” (Eur J Med Chem, 2023)
pIC50: −log10 of the molar value. Active and inactive are the calls of the source. No cut-off for these calls is given here.

Key:
MCF7 [1] = test: Antiproliferative activity against human MCF7 cells assessed as cell growth inhibition incubated for 5 days by MTT assay; assay type: functional, cell-based; settings: MCF7, 120 h
Ishikawa = test: Antiproliferative activity against human Ishikawa cells assessed as cell growth inhibition at 20 uM incubated for 3 days by MTT assay; assay type: functional; settings: for inhibition: time 3.0 day; for inhibition at 20 µM: 72 h, time 3 day
MCF7 [2] = test: Induction of ER degradation in human MCF7 cells at 10 uM incubated for 24 hrs by Western blot analysis; assay type: cell-based
MCF7 [3] = test: Antiproliferative activity against human MCF7 cells assessed as reduction in cell viability; assay type: functional, cell-based
MCF7 [4] = test: Stabilization of ER in human MCF7 cells at 10 uM incubated for 24 hrs by Western blot analysis; assay type: cell-based
MCF7 [5] = test: Induction of cell cycle arrest in human MCF7 cells assessed as accumulation at G0/G1 phase at 10 uM incubated for 24 hrs by flow cytometry (Rvb= 46.53 +/- 0.44%); assay type: functional
MCF7 [6] = test: Antitumor activity against human MCF7 cells xenografted in nude mouse assessed as tumor growth inhibition at 30 mg/kg,po for 30 days daily; assay type: functional, organism-based; settings: time 30.0 day
[7] = Toxicity in Sprague-Dawley rat uterus assessed as change in uterine wet weight at 30 mg/kg, po for 2 days consecutively; assay type: organism-based; settings: in vivo, 48 h, time 2 day

Question: With `Cc1cc(C)cc(C(=O)c2sc3cc(F)ccc3c2Oc2ccc(/C=C/C(=O)O)cc2)c1` as the molecule, how does the pIC50 (MCF7 [1]) read?
Answer: The pIC50 was 5.59.

Question: What about the inhibition (Ishikawa) of the same molecule?
Answer: The inhibition was “inactive”.

Question: What about the Activity (MCF7 [2]) of the same molecule?
Answer: Its Activity is “Active”.

Question: With `CCNCCc1ccc(CN(CC)c2cc(OC)ccc2[C@@H]2CCc3cc(O)ccc3C2)cc1` [ELACESTRANT] as the molecule, how does the pIC50 (MCF7 [3]) read?
Answer: The pIC50 was 5.38.

Question: With `Cc1cc(Oc2c(C(=O)c3ccccc3)sc3cc(F)ccc23)ccc1/C=C/C(=O)O` as the molecule, how does the pIC50 (MCF7 [1]) read?
Answer: The pIC50 was 6.17.

Question: And the inhibition at 20 µM (Ishikawa)?
Answer: The inhibition at 20 µM was 19%.

Question: And the Activity (MCF7 [2])?
Answer: Its Activity is “Active”.

Question: What does the source list for `O=C(O)/C=C/c1ccc(Oc2c(C(=O)c3cccc(F)c3)sc3cc(F)ccc23)cc1`?
Answer: pIC50 (MCF7 [1]): 5.23; inhibition at 20 µM (Ishikawa): 9%; Activity (MCF7 [2]): Active

Question: With `O=C(O)/C=C/c1ccc(-c2ccc(Oc3c(C(=O)c4ccccc4)sc4cc(F)ccc34)cc2)cc1` as the molecule, how does the pIC50 (MCF7 [1]) read?
Answer: Its pIC50 is 5.00.

Question: What about the inhibition at 20 µM (Ishikawa) of the same molecule?
Answer: Its inhibition at 20 µM is 8%.

Question: And the Activity (MCF7 [2])?
Answer: The Activity was “Active”.

Question: With `Cc1cccc(C)c1C(=O)c1sc2cc(F)ccc2c1Oc1ccc(/C=C/C(=O)O)cc1` as the molecule, how does the pIC50 (MCF7 [1]) read?
Answer: Its pIC50 is 6.55.

Question: What about the inhibition (Ishikawa) of the same molecule?
Answer: The inhibition was “inactive”.

Question: What about the Activity (MCF7 [2]) of the same molecule?
Answer: Its Activity is “Active”.

Question: With `COc1ccc(C(=O)c2sc3cc(F)ccc3c2Oc2ccc(/C=C/C(=O)O)cc2)cc1` as the molecule, how does the pIC50 (MCF7 [1]) read?
Answer: Its pIC50 is 6.47.

Question: And the inhibition at 20 µM (Ishikawa)?
Answer: The inhibition at 20 µM was 53%.

Question: And the Activity (MCF7 [2])?
Answer: Its Activity is “Active”.

Question: With `O=C(O)/C=C/c1ccc(Oc2c(C(=O)c3ccc4ccccc4c3)sc3cc(F)ccc23)cc1` as the molecule, how does the pIC50 (MCF7 [1]) read?
Answer: Its pIC50 is 5.32.

Question: What about the inhibition at 20 µM (Ishikawa) of the same molecule?
Answer: Its inhibition at 20 µM is 25%.

Question: And the Activity (MCF7 [2])?
Answer: Its Activity is “Active”.

Question: With `Cc1cc(/C=C/C(=O)O)ccc1Oc1c(C(=O)c2ccccc2)sc2cc(F)ccc12` as the molecule, how does the pIC50 (MCF7 [1]) read?
Answer: Its pIC50 is 5.42.

Question: And the inhibition at 20 µM (Ishikawa)?
Answer: Its inhibition at 20 µM is 6%.

Question: What about the Activity (MCF7 [2]) of the same molecule?
Answer: Its Activity is “Active”.

Question: With `O=C(O)/C=C/c1ccc(Oc2c(C(=O)c3ccc4ccncc4c3)sc3cc(F)ccc23)cc1` as the molecule, how does the pIC50 (MCF7 [1]) read?
Answer: The pIC50 was less than 4.70.

Question: What about the inhibition at 20 µM (Ishikawa) of the same molecule?
Answer: The inhibition at 20 µM was 36%.

Question: And the Activity (MCF7 [2])?
Answer: The Activity was “Active”.

Question: With `Cc1cc(F)ccc1C(=O)c1sc2cc(F)ccc2c1Oc1ccc(/C=C/C(=O)O)cc1` as the molecule, how does the pIC50 (MCF7 [1]) read?
Answer: The pIC50 was 6.44.

Question: What about the inhibition at 20 µM (Ishikawa) of the same molecule?
Answer: Its inhibition at 20 µM is 11%.

Question: And the Activity (MCF7 [2])?
Answer: Its Activity is “Active”.

Question: Which results are given for `CC/C(=C(\c1ccccc1)c1ccc(OCCN(C)C)cc1)c1ccccc1` [TAMOXIFEN]?
Answer: pIC50 (MCF7 [1]): 5.63; inhibition at 20 µM (Ishikawa): 50%; Activity (MCF7 [4]): Active; Activity (MCF7 [5]): 67.34%; Activity (MCF7 [6]): Active; Activity [7]: Toxic

Question: With `O=C(O)/C=C/c1ccc(Oc2c(C(=O)c3cccc4ccccc34)sc3cc(F)ccc23)cc1` as the molecule, how does the pIC50 (MCF7 [1]) read?
Answer: Its pIC50 is 5.07.

Question: And the inhibition at 20 µM (Ishikawa)?
Answer: The inhibition at 20 µM was 8%.

Question: What about the Activity (MCF7 [2]) of the same molecule?
Answer: The Activity was “Active”.
